For 15 compounds, Ki results are on record in patent publication US20230141603A1, “BENZODIAZEPINE DERIVATIVES AS GABA A GAMMA1 PAM” (Hoffmann-La Roche Inc., priority 2021, published 2023).

Structures are written as SMILES.

As usually defined, the Ki is a dissociation constant, usually derived from enzyme kinetics or from competition with a known ligand. The low end stands for tighter binding, the high end for weaker binding.

The experiment addresses T1, h-GABAA α2β2γ1 (Homo sapiens, UniProt P47869+Q8N1C3).
T1 sequence (P47869 29-451): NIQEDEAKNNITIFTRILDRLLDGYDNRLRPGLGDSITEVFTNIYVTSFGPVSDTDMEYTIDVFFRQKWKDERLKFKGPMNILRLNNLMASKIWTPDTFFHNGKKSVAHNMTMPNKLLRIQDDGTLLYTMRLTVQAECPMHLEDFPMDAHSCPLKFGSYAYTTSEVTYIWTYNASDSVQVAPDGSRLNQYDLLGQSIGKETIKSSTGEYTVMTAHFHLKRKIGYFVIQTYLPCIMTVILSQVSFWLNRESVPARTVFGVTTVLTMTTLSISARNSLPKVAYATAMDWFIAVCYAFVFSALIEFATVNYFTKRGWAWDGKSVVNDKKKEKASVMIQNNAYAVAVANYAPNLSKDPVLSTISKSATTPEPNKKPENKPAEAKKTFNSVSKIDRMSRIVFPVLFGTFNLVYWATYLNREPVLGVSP
T1 sequence (P47870 25-512 partner limits assumed): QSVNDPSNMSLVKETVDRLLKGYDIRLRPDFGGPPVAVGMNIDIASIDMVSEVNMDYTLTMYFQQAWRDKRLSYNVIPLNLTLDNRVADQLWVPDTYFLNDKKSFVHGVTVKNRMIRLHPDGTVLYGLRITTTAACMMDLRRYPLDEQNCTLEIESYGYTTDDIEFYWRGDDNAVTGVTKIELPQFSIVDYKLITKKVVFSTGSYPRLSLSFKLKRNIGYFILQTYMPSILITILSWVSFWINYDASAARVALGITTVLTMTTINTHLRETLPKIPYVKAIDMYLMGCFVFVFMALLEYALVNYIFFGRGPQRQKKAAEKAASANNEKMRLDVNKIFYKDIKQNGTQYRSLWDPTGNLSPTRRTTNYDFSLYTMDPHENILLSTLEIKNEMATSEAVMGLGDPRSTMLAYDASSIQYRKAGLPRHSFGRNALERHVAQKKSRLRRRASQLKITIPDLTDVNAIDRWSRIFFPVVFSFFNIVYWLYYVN
T1 sequence (Q8N1C3 36-465): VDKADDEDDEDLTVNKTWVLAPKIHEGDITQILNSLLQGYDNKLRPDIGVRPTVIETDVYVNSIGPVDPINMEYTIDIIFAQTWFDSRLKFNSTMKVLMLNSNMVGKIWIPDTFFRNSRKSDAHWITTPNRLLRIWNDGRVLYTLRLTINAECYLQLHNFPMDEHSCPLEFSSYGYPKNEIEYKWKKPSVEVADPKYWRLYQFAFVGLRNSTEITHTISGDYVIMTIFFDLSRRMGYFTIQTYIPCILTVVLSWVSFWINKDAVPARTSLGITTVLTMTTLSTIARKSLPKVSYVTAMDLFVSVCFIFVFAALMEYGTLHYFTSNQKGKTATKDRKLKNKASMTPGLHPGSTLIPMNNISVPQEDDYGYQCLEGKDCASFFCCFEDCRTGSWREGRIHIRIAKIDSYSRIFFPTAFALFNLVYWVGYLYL
The experiment in a line: Radioligand binding assay, [3H]RO7239181 competition, HEK293F membranes. On the set-up: signal peptide of human GABAA α5 subunit (Met1 to Ser31), replacing the α2 signal peptide (N); expressed in transfected cells; host or cells: HEK293F cells (ThermoFisher R79007), membranes. As to the method: The affinity of compounds at GABAA γ1 subunit-containing receptors was measured by competition for [^3H]RO7239181 (67.3 Ci/mmol; Roche) binding to membranes from HEK293F cells (ThermoFisher R79007) expressing human (transiently transfected) receptors of composition […], α2β2γ1, α1β2γ1.
Harvested pellets from HEK293F cells expressing the different GABAA receptor subtypes were resuspended in Mannitol Buffer pH 7.2-7.4 (Mannitol 0.29M, Triethylamine 10 mM, Acetic acid 10 mM, EDTA 1 mM plus protease inhibitors (20 tablets Complete, Roche Diagnostics Cat. No. 05 056 489 001 per liter)), washed two times and then resuspended at 1:10 to 1:15 dilution in the same buffer. Cell disruption was performed by stirring the suspension in a Parr vessel #4637 at 435 psi for 15 minutes, and then the suspensions were centrifuged at 1000×g for 15 minutes at 4° C. (Beckman Avanti J-HC; rotor JS-4.2). The supernatant (S1) was transferred in a 21 Schott flask and the pellet (P1) was resuspended with Mannitol Buffer up to 175 ml. The resuspended pellet was transferred into a 250 ml Corning centrifugal beaker and centrifuged at 1500×g for 10 minutes at 4° C. (Beckman Avanti J-HC; rotor JS-4.2). The supernatant (S1) was then transferred in the 21 Schott flask and the pellet was discarded. The supernatants (S1) were centrifuged in 500 ml Beckman polypropylene centrifugal beaker at 15′000×g for 30 minutes at 4° C. (Beckman Avanti J-20 XP; rotor JLA-10.500). The pellet (P2) was resuspended with Mannitol Buffer 1:1 and frozen at −80° C. The supernatant (S2) was centrifuged in 100 ml Beckman polypropylene centrifugal tubes at 48000×g for 50 minutes at 4° C. (Beckman Avanti J-20 XP; rotor JA-18). The supernatant (S3) was discarded and the pellet (P3) was resuspended with 1:1 Mannitol Buffer. The P2 and P3 protein concentration was determined with the BIORAD Standard assay method with bovine serum albumin as standard and measured on the NANO-Drop 1000. The membrane suspension was aliquots (500 μl per tube) and stored at −80° C. until required. Membrane homogenates were resuspended and polytronised (Polytron PT1200E Kinematica AG) in Potassium Phosphate 10 mM, KCl 100 mM binding buffer at pH 7.4 to a final assay concentration determined with a previous experiment.
Assays were incubated to equilibrium for 1 hour at 4° C. and then, membranes were filtered onto unifilter (96-well white microplate with bonded GF/C filters preincubated 20-50 minutes in 0.3% Polyethylenimine) with a Filtermate 196 harvester (Packard BioScience) and washed 4 times with cold Potassium Phosphate 10 mM pH 7.4, KCl 100 mM binding buffer. After drying, filter-retained radioactivity was detected by liquid scintillation counting. Ki values were calculated using Excel-Fit (Microsoft) and are the means of two determinations.
In turn, `Clc1cccnc1C1=NCc2nnc(-c3ccncn3)n2-c2ccc(Br)c(Cl)c21` [Example 44, 8-bromo-7-chloro-6-(3-chloro-2-pyridyl)-1-pyrimidin-4-yl-4H-[1,2,4]triazolo[4,3-a][1,4]benzodiazepine] yielded a Ki of 9.6 nM.

`Cc1nnc2n1-c1ccc(C(F)(F)F)c(Cl)c1C(c1ncccc1F)=NC2` [Example 78, 7-chloro-6-(3-fluoro-2-pyridyl)-1-methyl-8-(trifluoromethyl)-4H-[1,2,4]triazolo[4,3-a][1,4]benzodiazepine]: the Ki was 50.8 nM.

As to `Fc1ccccc1C1=NCc2nnc(-c3ccncn3)n2-c2ccc(Cl)c(Cl)c21` [Example 18, 7,8-dichloro-6-(2-fluorophenyl)-1-pyrimidin-4-yl-4H-[1,2,4]triazolo[4,3-a][1,4]benzodiazepine], the affinity, expressed as Ki, was 21.6 nM.

In the case of `O=c1[nH]nc2n1-c1ccc(Cl)c(Cl)c1C(c1c(F)cccc1F)=NC2` [Example 9, 7,8-dichloro-6-(2,6-difluorophenyl)-2,4-dihydro-[1,2,4]triazolo[4,3-a][1,4]benzodiazepin-1-one], the Ki turned out to be 8 nM.

Regarding `Cc1nnc2n1-c1ccc(C(C)(F)F)c(Cl)c1C(c1c(F)cccc1F)=NC2` [Example 22, 7-chloro-8-(1,1-difluoroethyl)-6-(2,6-difluorophenyl)-1-methyl-4H-[1,2,4]triazolo[4,3-a][1,4]benzodiazepine], the Ki amounted to 37.4 nM.

On to `Fc1cccnc1C1=NCc2nnc(C3CC3)n2-c2ccc(Br)c(Cl)c21` [Example 77, 8-bromo-7-chloro-1-cyclopropyl-6-(3-fluoro-2-pyridyl)-4H-[1,2,4]triazolo[4,3-a][1,4]benzodiazepine], for which the affinity, expressed as Ki, was 19.6 nM.

In turn, `COc1nnc2n1-c1ccc(Cl)c(Cl)c1C(c1c(F)cccc1F)=NC2` [Example 90, 7,8-dichloro-6-(2,6-difluorophenyl)-1-methoxy-4H-[1,2,4]triazolo[4,3-a][1,4]benzodiazepine] displayed a Ki of 5.8 nM.

Compound `Cc1nnc2n1-c1ccc(Br)c(Cl)c1C(c1c(F)cccc1F)=NC2` [Example 1, 8-bromo-7-chloro-6-(2,6-difluorophenyl)-1-methyl-4H-[1,2,4]triazolo[4,3-a][1,4]benzodiazepine] displayed a Ki of 8 nM.

`Fc1cccc(F)c1C1=NCc2nnc(-c3cccnn3)n2-c2ccc(Br)c(Cl)c21` [Example 104, 8-bromo-7-chloro-6-(2,6-difluorophenyl)-1-pyridazin-3-yl-4H-[1,2,4]triazolo[4,3-a][1,4]benzodiazepine] registered a Ki of 2.3 nM.

For the compound `Fc1ccccc1C1=NCc2nnc(C3CC3)n2-c2ccc(Br)c(Cl)c21` [Example 2, 8-bromo-7-chloro-1-cyclopropyl-6-(2-fluorophenyl)-4H-[1,2,4]triazolo[4,3-a][1,4]benzodiazepine], the inhibitory constant (Ki) is 47.9 nM.

Compound `Cc1ncc2n1-c1ccc(Cl)cc1C(c1ccccc1F)=NC2` [Midazolam, reference compound] gave a Ki of 738 nM.

`Cc1ccc2c(c1Cl)C(c1c(F)cccc1F)=NCc1nnc(C)n1-2` [Example 20, 7-chloro-6-(2,6-difluorophenyl)-1,8-dimethyl-4H-[1,2,4]triazolo[4,3-a][1,4]benzodiazepine] returned a Ki of 23.8 nM.

As for `Fc1cccnc1C1=NCc2nncn2-c2ccc(Cl)c(Cl)c21` [Example 60, 7,8-dichloro-6-(3-fluoro-2-pyridyl)-4H-[1,2,4]triazolo[4,3-a][1,4]benzodiazepine], the inhibition constant Ki was determined as 38.9 nM.

In turn, `Fc1cccc(F)c1C1=NCc2nncn2-c2ccc(I)c(Cl)c21` [Example 34, 7-chloro-6-(2,6-difluorophenyl)-8-iodo-4H-[1,2,4]triazolo[4,3-a][1,4]benzodiazepine] gave a Ki of 10.1 nM.

`Fc1ccccc1C1=NCc2nnc(-c3cccnn3)n2-c2ccc(Br)c(Cl)c21` [Example 3, 8-bromo-7-chloro-6-(2-fluorophenyl)-1-pyridazin-3-yl-4H-[1,2,4]triazolo[4,3-a][1,4]benzodiazepine]: affinity was put at a Ki of 8.8 nM.
